# According to patent publication EP0290583B1, “$g(a) OLIGONUCLEOTIDES” (CENTRE NATIONAL DE LA RECHERCHE SCIENTIFIQUE (CNRS), priority 1986, dated 1988):
# Columns and labels:
# [1] = test system: β-d^5' (ApCpGpGpApApTpApTpApGpC]^3'; experiment: Half-dissociation temperature (T 1/2) of the hybridisation complex with a parallel complementary beta strand; type: binding; details: 10 mM cacodylate de sodium/0,1M NaCl, pH = 7, 10 µM
# From the text: (§1) Les nouveaux produits de formule générale (I) selon l'invention et les produits de formule générale (I) dans laquelle L représente un atome d'oxygène, R et R' représentent chacun un atome d'hydrogène et B représente un base nucléique naturelle forment des complexes d'hybridation avec les séquences complémentaires d'ARN beaucoup plus stables que ceux qui sont formés avec l'ADN. La stabilité peut être mesurée par la température de demi-transition des complexes (T 1/2) lors d'une élévation de température. Les valeurs de T 1/2 sont déterminées à la concentration de 10⁻⁵M en α -oligonucléotide dans un tampon à pH = 7 contenant du cacodylate de sodium (10⁻²M) et du chlorure de sodium (0,1 M). Les résultats sont rassemblés dans les Tableaux I.
# (§2) Dans les hybrides formés par les dérivés des α-oligonucléotides selon l'invention avec les séquences d'acides nucléiques complémentaires les deux brins possèdent généralement la même orientation.
# β-d^5' [AGATTTGAG]^3' = experiment: as above; type: binding; details: 10 mM cacodylate de sodium/0,1M NaCl, pH = 7, 10 µM
# From the text: as §1, §2
# β-d^5'[GAGTTTAGA]^3' = experiment: Complex formation with the antiparallel beta strand; type: binding; details: antiparallel sequence; 10 mM cacodylate de sodium/0,1M NaCl, pH = 7, 10 µM
# From the text: as §1, §2
# [2] = test system: fragment d'ADN simple brin (10 nM) de séquence d(^5'TGAGTGAGTAAAAAAAATGAGTGCCAA^3'); experiment: Specific cleavage of single-stranded DNA by a phenanthroline-coupled alpha-oligonucleotide; type: biochemical; details: 5µM, sulfate cuivrique (1µM), acide β-mercaptopropionique (1 mM), 0°C, 3 heures
# Experimental: (§3) L'α-D-oligonucléotide décrit à l'exemple XIV (5µM) est dissous dans un tampon à pH 7 contenant 10 mM cacodylate de sodium et 0,1 M NaCl. […] Du sulfate cuivrique (1µM) et de l'acide β-mercaptopropionique (1 mM) sont ajoutés à 0°C et le mélange est incubé à 0°C pendant 3 heures. De la bathocuproine est ajoutée pour arrêter la réaction. Le mélange est disposé sur un gel de polyacrylamide à 18 % et soumis à l'électrophorèse.
# [3] = test system: fragment d'ADN double brin; experiment: Specific cleavage of double-stranded DNA by a phenanthroline-coupled alpha-oligonucleotide; type: biochemical; details: en présence de 1 mM spermine
# Experimental: as §3
# La position des sites de coupure sur le double brin indique que l'α-D-oligothymidylate XIV est orienté parallèlement au brin contenant la séquence A₈.
substance,measurement,setting,value
[Acr(CH₂)₅]α-d(pCpCpTpTpApTpApTpT) [Acr(CH₂)₅-α-d^5' [pCpCpTpTpApTpApTpT]^3'],température de demi-dissociation (T 1/2),[1],35 °C
Acr(CH₂)₅ α-d^5'[TCTAAACTC]^3',température de demi-dissociation (T 1/2),β-d^5' [AGATTTGAG]^3',27 °C
same,complexe mis en évidence au-dessus de 0°C,β-d^5'[GAGTTTAGA]^3',Aucun complexe
(Phe-CH₂)α-[(sp)(Tp)₇T] [XIV],coupure de l'ADN simple brin (sites de coupures),[2],sites de coupures sont révélés
same,coupure de l'ADN double brin,[3],induit des coupures sur les deux brins de la double hélice
